Structures are written as SMILES.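 Following 48 hours of exposure in 96-well plates, responses at five concentrations were used to interpolate endpoints linearly. GI50 is the concentration that inhibits growth by half. TGI is the concentration that stops growth completely.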

In PubChem BioAssay (NCI) one finds TGI and GI50 data, which are given here for eleven molecules.

Test systems include T-47D breast; HL-60(TB) leukemia; TK-10 renal; K-562 leukemia; UACC-257 melanoma; HS 578T breast; SK-MEL-2 melanoma; HCC-2998 colon.
Assay in all cases: NCI anticancer screen, dose series, 48 h

Consider `CCCC(=O)Nc1cc([N+](=O)[O-])c([N+](=O)[O-])cc1OC`, for which the TGI in the assay with T-47D breast was 19.4 µM; in the assay on HL-60(TB) leukemia, 39 µM; in the assay on TK-10 renal, 31 µM; with K-562 leukemia it was over 100 µM; in the assay with UACC-257 melanoma, 35.4 µM; in the assay on HS 578T breast, 46.5 µM. The molecule also returned a TGI with SK-MEL-2 melanoma of 41.6 µM.

As for `COc1cc2c3c(n(CCCCNC(=O)OCC4c5ccccc5-c5ccccc54)c(=O)c2cc1OC)-c1cc2c(cc1C3=O)OCO2`, the GI50 was 95.8 µM with T-47D breast; 56.3 µM with TK-10 renal; 3.05 µM with K-562 leukemia; over 100 µM in the assay on UACC-257 melanoma; 80.7 µM in the assay on HS 578T breast; 70.4 µM in the assay with SK-MEL-2 melanoma. For the same molecule, in the assay with HCC-2998 colon, the GI50 was 14.9 µM. The TGI in the assay on T-47D breast was over 100 µM; in the assay on TK-10 renal, over 100 µM; with K-562 leukemia, 27.4 µM; in the assay on UACC-257 melanoma, over 100 µM; with HS 578T breast, over 100 µM; in the assay on SK-MEL-2 melanoma it was over 100 µM. In the assay with HCC-2998 colon, the TGI was over 100 µM.

For `COC(=O)c1oc2c(O)c(OC)c(Br)cc2c1C`, the GI50 is 18.3 µM in the assay on TK-10 renal; 34.4 µM in the assay on K-562 leukemia; 24.5 µM in the assay on UACC-257 melanoma; 33.7 µM with HS 578T breast; 56.2 µM in the assay on SK-MEL-2 melanoma. Further, the TGI with TK-10 renal is 40 µM; in the assay with K-562 leukemia, over 100 µM; in the assay on UACC-257 melanoma it was 99.6 µM; in the assay on HS 578T breast it was over 100 µM; in the assay on SK-MEL-2 melanoma, over 100 µM.

On to `CC(=O)c1c(O)ccc2c(C)c(C(=O)O)oc12`, for which the GI50 in the assay with T-47D breast is over 100 µM; with TK-10 renal, over 100 µM; in the assay with K-562 leukemia, over 100 µM; in the assay with UACC-257 melanoma, over 100 µM; in the assay on HS 578T breast, over 100 µM; in the assay with HCC-2998 colon, 55.8 µM. The TGI in the assay on T-47D breast, in the assay with TK-10 renal, in the assay with K-562 leukemia, in the assay on UACC-257 melanoma, with HS 578T breast and in the assay on HCC-2998 colon was over 100 µM each time.

For `CCCCCCCCCCCCSC(=NC)NC`, the GI50 was 2.04 µM with T-47D breast; 1860 nM in the assay with HL-60(TB) leukemia; 1.71 µM in the assay with TK-10 renal; 1.95 µM in the assay with K-562 leukemia; 2.15 µM in the assay with UACC-257 melanoma; 2.41 µM in the assay on HS 578T breast. Further, in the assay on HCC-2998 colon, the GI50 is 1.6 µM. Moreover, the TGI was 4.77 µM in the assay with T-47D breast; 4.41 µM with HL-60(TB) leukemia; 3.49 µM in the assay with TK-10 renal; 6.35 µM in the assay with K-562 leukemia; 5.14 µM in the assay on UACC-257 melanoma; 7.07 µM with HS 578T breast. Further, the TGI with HCC-2998 colon is 3.03 µM.

As to `CC1CC(C)/C(=N/NC(N)=O)C(C(O)CC2CCC(=O)NC2=O)C1` (centres undefined), the GI50 is 4.41 µM in the assay on T-47D breast; 5600 nM in the assay on HL-60(TB) leukemia; 1.64 µM in the assay with TK-10 renal; 3.48 µM in the assay with UACC-257 melanoma; 1.34 µM with HS 578T breast; 2.2 µM in the assay on SK-MEL-2 melanoma. In addition, in the assay on HCC-2998 colon, the GI50 was 5.07 µM. For the same molecule, the TGI with T-47D breast was over 100 µM; with HL-60(TB) leukemia, over 100 µM; in the assay with TK-10 renal it was 10.2 µM; with UACC-257 melanoma it was 50.4 µM; in the assay with HS 578T breast, 8.25 µM; with SK-MEL-2 melanoma, 12.3 µM. Further, in the assay on HCC-2998 colon, the TGI was over 100 µM.

For the molecule `O=C1Nc2ccccc2/C1=C/c1cn(C(=O)c2c(Cl)cccc2Cl)c2ccccc12`, the GI50 in the assay on T-47D breast was 4.13 µM; in the assay on HL-60(TB) leukemia it was 2460 nM; in the assay on TK-10 renal, 10.4 µM; in the assay with K-562 leukemia, 3.14 µM; in the assay with UACC-257 melanoma it was 5 µM; in the assay with HS 578T breast, 2.17 µM. For the same molecule, the GI50 in the assay with HCC-2998 colon was 6.03 µM. Moreover, the TGI in the assay with T-47D breast was 93 µM; in the assay with HL-60(TB) leukemia, 11 µM; with TK-10 renal it was 56 µM; in the assay on K-562 leukemia it was over 100 µM; in the assay with UACC-257 melanoma, 24.8 µM; with HS 578T breast, 8.98 µM. In addition, the TGI in the assay on HCC-2998 colon was found to be 19.6 µM.

Turning to `O=C(Nc1ccc(Cl)cc1)c1ccc([N+](=O)[O-])o1`, the GI50 was 4.42 µM in the assay on T-47D breast; 2630 nM in the assay with HL-60(TB) leukemia; 2.4 µM with TK-10 renal; 1.97 µM in the assay with UACC-257 melanoma; 2.81 µM in the assay with HS 578T breast; 2.76 µM with SK-MEL-2 melanoma. Also, the GI50 with HCC-2998 colon was 1.44 µM. The TGI in the assay on T-47D breast amounted to 23.2 µM; with HL-60(TB) leukemia it was 7.66 µM; with TK-10 renal, 5.32 µM; with UACC-257 melanoma, 5.25 µM; with HS 578T breast it was 18.6 µM; with SK-MEL-2 melanoma it was 6.53 µM. In the assay on HCC-2998 colon, this molecule registered a TGI of 2.98 µM.

As for `Cc1nc(N)sc1N=Nc1cc(Cl)c([N+](=O)[O-])cc1Cl`, the TGI was over 100 µM in the assay on T-47D breast; 57.7 µM in the assay on HL-60(TB) leukemia; 52.1 µM with TK-10 renal; 30 µM in the assay with K-562 leukemia; 44.7 µM in the assay on UACC-257 melanoma; 95.9 µM with HS 578T breast. For the same molecule, the TGI in the assay with SK-MEL-2 melanoma amounted to 60 µM.

As for `COc1ccc(/C(=N\O)c2cc(OC)c(OC)c(OC)c2)c(OC)c1N`, the GI50 in the assay with T-47D breast is over 100 µM; with HL-60(TB) leukemia, 2600 nM; in the assay on TK-10 renal it was over 100 µM; with K-562 leukemia, 1.5 µM; in the assay on HS 578T breast, 5.51 µM; in the assay with SK-MEL-2 melanoma, 7.48 µM. In addition, the GI50 in the assay on HCC-2998 colon is 3.29 µM. For the same molecule, the TGI was over 100 µM in the assay on T-47D breast; 6.55 µM in the assay with HL-60(TB) leukemia; over 100 µM in the assay with TK-10 renal; over 100 µM in the assay with K-562 leukemia; over 100 µM in the assay on HS 578T breast; over 100 µM in the assay with SK-MEL-2 melanoma. In the assay on HCC-2998 colon, the TGI was over 100 µM.

As for `COC(=O)c1cc2c3ccccc3n3c(=O)c4cc5cc(OC)c(N(S(=O)(=O)c6ccc(C)cc6)S(=O)(=O)c6ccc(C)cc6)cc5nc4c(n1)c23`, the GI50 with T-47D breast was over 100 µM; in the assay with HL-60(TB) leukemia, 74700 nM; in the assay on TK-10 renal, 8.92 µM; with K-562 leukemia, 47.2 µM; in the assay with UACC-257 melanoma, over 100 µM; in the assay on HS 578T breast it was 4.97 µM. The GI50 with HCC-2998 colon was over 100 µM. Also, the TGI was over 100 µM in the assay with T-47D breast; over 100 µM with HL-60(TB) leukemia; 23.6 µM in the assay on TK-10 renal; over 100 µM in the assay on K-562 leukemia; over 100 µM in the assay with UACC-257 melanoma; 54.2 µM in the assay on HS 578T breast. Also, the TGI in the assay with HCC-2998 colon was over 100 µM.
